Assay: recombinant UMI read abundance after kanamycin selection (control-corrected) (log10(CPM+1)); higher = more efficient recombination; extreme values may be limits of the assay; sequences stand for … in AGTGCAGAGAAAATCGGCCAGTTTTCTCTGCCTGCAGTCCGCATGCCGTGGGACCCCTTGGGTTCTAACCTGTTGCCTAGATTTATGCAGCGGACTGCCTTTCTCCCAAAGTGATAAACCGG…AGGTTGGTTTCACT; site = the 11-nt donor
In short: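 Values are reported as log10(CPM+1), obtained by converting sequencing counts to CPM, averaging replicates and scaling by control-derived factors. The counts came from recombinant UMIs amplified by PCR across the donor–target junction. These UMIs came from a pooled Escherichia coli screen of donor and donor-binding-loop pairs for the IS621 bridge recombinase, plated with IPTG (0.07 mM) plus kanamycin or left unselected, in two replicates each.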
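Note: IS621 bridge recombinase in Escherichia coli cells against a fixed T5 target plasmid.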

| Sequence | recombinant UMI read abundance (log10) |
| --- | --- |
| CATAAAGCATGGACCGGTTTTCCCGGTAATCCGTATTTGAT (site CGTAAAGCTAT) | 0.166 |
| CATAAAGCATGGACCGGTTTTCCCGGTAATCCGTATTTGAT (site CTTAAAGCTAT) | 0 |
| CATACGCCATGGACCGGTTTTCCCGGTAATCCGTATTTGGG (site CATACGCCTCC) | 0.0136 |
| CATCAGCCATGGACCGGTTTTCCCGGTAATCCGTATTTGAG (site CATCAGCCTCT) | 0.441 |
| CATCAGTCATGGACCGGTTTTCCCGGTAATCCGTATTTGCA (site CATCAGTCTTG) | 3.13 |
| CATCCAACATGGACCGGTTTTCCCGGTAATCCGTATTTGTC (site CATCCAACTGA) | 2.17 |
| CATCGCACATGGACCGGTTTTCCCGGTAATCCGTATTTGGC (site CATCGCACTGC) | 2.26 |
| CATCGCCCATGGACCGGTTTTCCCGGTAATCCGTATTTGAT (site CATCGCCCTAT) | 0.725 |
| CATCTCTCATGGACCGGTTTTCCCGGTAATCCGTATTTGTA (site CATCTCTCTTA) | 2.66 |
| CATCTCTCATGGACCGGTTTTCCCGGTAATCCGTATTTGTA (site CCTCTCTCTTA) | 1.42 |
| CATCTCTCATGGACCGGTTTTCCCGGTAATCCGTATTTGTA (site CGTCTCTCTTA) | 1.23 |
| CATCTCTCATGGACCGGTTTTCCCGGTAATCCGTATTTGTA (site CTTCTCTCTTA) | 1.98 |
| CATGAGGCATGGACCGGTTTTCCCGGTAATCCGTATTTGGT (site CATGAGGCTAC) | 1.12 |
| CATGCCTCATGGACCGGTTTTCCCGGTAATCCGTATTTGCT (site CATGCCTCTAG) | 2.76 |
| CATGGAACATGGACCGGTTTTCCCGGTAATCCGTATTTGGA (site CATGGAACTTC) | 1.99 |
| CATGGCACATGGACCGGTTTTCCCGGTAATCCGTATTTGGA (site CATGGCACTTC) | 0.46 |
| CATGTCACATGGACCGGTTTTCCCGGTAATCCGTATTTGGG (site CAAGTCACTCC) | 0.0107 |
| CATGTCACATGGACCGGTTTTCCCGGTAATCCGTATTTGGG (site CACGTCACTCC) | 0.0251 |
| CATGTCACATGGACCGGTTTTCCCGGTAATCCGTATTTGGG (site CAGGTCACTCC) | 0.0142 |
| CATGTCACATGGACCGGTTTTCCCGGTAATCCGTATTTGGG (site CATGTCACTCC) | 0.00831 |
| CATGTGGCATGGACCGGTTTTCCCGGTAATCCGTATTTGCT (site CATGTGGCTAG) | 1.39 |
| CATGTTCCATGGACCGGTTTTCCCGGTAATCCGTATTTGTT (site CATGTTCCTAA) | 0.678 |
| CATTCAACATGGACCGGTTTTCCCGGTAATCCGTATTTGAC (site CATTCAACTGT) | 0.406 |
| CATTGTACATGGACCGGTTTTCCCGGTAATCCGTATTTGGG (site CATTGTACTCC) | 0.0267 |
| CATTTCTCATGGACCGGTTTTCCCGGTAATCCGTATTTGTT (site CATTTCTCTAA) | 1.52 |

| Sequence | recombinant UMI read abundance (log10) |
| --- | --- |
| CATTTGCCATGGACCGGTTTTCCCGGTAATCCGTATTTGTG (site CATTTGCCTCA) | 0.302 |
| CCAAAACCATGGACCGGTTTTCCCGGTAATCCGTATTTGTT (site CCAAAACCTAA) | 0.00598 |
| CCAAAGGCATGGACCGGTTTTCCCGGTAATCCGTATTTGCC (site CCAAAGGCTGG) | 0 |
| CCAACTACATGGACCGGTTTTCCCGGTAATCCGTATTTGGC (site CCAACTACTGC) | 0 |
| CCAATCGCATGGACCGGTTTTCCCGGTAATCCGTATTTGCA (site CCAATCGCTTG) | 0 |
| CCAATTACATGGACCGGTTTTCCCGGTAATCCGTATTTGCC (site CCAATTACTGG) | 0 |
| CCACACACATGGACCGGTTTTCCCGGTAATCCGTATTTGCA (site CCACACACTTG) | 2.07 |
| CCACCCTCATGGACCGGTTTTCCCGGTAATCCGTATTTGCT (site CCACCCTCTAG) | 1.95 |
| CCACGGACATGGACCGGTTTTCCCGGTAATCCGTATTTGGT (site CCACGGACTAC) | 0.0137 |
| CCACGGCCATGGACCGGTTTTCCCGGTAATCCGTATTTGTA (site CCACGGCCTTA) | 0 |
| CCACGTCCATGGACCGGTTTTCCCGGTAATCCGTATTTGGT (site CCACGTCCTAC) | 0.0291 |
| CCACTTGCATGGACCGGTTTTCCCGGTAATCCGTATTTGTG (site CCACTTGCTCA) | 0.358 |
| CCAGATGCATGGACCGGTTTTCCCGGTAATCCGTATTTGCG (site CCAGATGCTCG) | 1.59 |
| CCAGGATCATGGACCGGTTTTCCCGGTAATCCGTATTTGAT (site CCAGGATCTAT) | 0 |
| CCAGGCGCATGGACCGGTTTTCCCGGTAATCCGTATTTGAT (site CCAGGAGCTAT) | 1.06 |
| CCAGGCGCATGGACCGGTTTTCCCGGTAATCCGTATTTGAT (site CCAGGCGCTAT) | 1.24 |
| CCAGGCGCATGGACCGGTTTTCCCGGTAATCCGTATTTGAT (site CCAGGGGCTAT) | 0.00758 |
| CCAGGCGCATGGACCGGTTTTCCCGGTAATCCGTATTTGAT (site CCAGGTGCTAT) | 0.707 |
| CCAGGGGCATGGACCGGTTTTCCCGGTAATCCGTATTTGAT (site CCAGGAGCTAT) | 0.735 |
| CCAGGGGCATGGACCGGTTTTCCCGGTAATCCGTATTTGAT (site CCAGGCGCTAT) | 0.972 |
| CCAGGGGCATGGACCGGTTTTCCCGGTAATCCGTATTTGAT (site CCAGGGGCTAT) | 1.04 |
| CCAGGGGCATGGACCGGTTTTCCCGGTAATCCGTATTTGAT (site CCAGGTGCTAT) | 0.888 |
| CCAGTACCATGGACCGGTTTTCCCGGTAATCCGTATTTGCA (site ACAGTATCTTG) | 0 |
| CCAGTACCATGGACCGGTTTTCCCGGTAATCCGTATTTGCA (site CCAGTACCTTG) | 0 |
| CCAGTATCATGGACCGGTTTTCCCGGTAATCCGTATTTGAA (site ACAGTATCTTG) | 0.128 |

| Sequence | recombinant UMI read abundance (log10) |
| --- | --- |
| CCAGTATCATGGACCGGTTTTCCCGGTAATCCGTATTTGAA (site CCAGTATCTTT) | 1.05 |
| CCAGTATCATGGACCGGTTTTCCCGGTAATCCGTATTTGAA (site CTAGTATCTGT) | 0 |
| CCAGTATCATGGACCGGTTTTCCCGGTAATCCGTATTTGCC (site ACAGTATCTTG) | 0.0067 |
| CCAGTATCATGGACCGGTTTTCCCGGTAATCCGTATTTGCC (site CCAGTATCTGG) | 1.44 |
| CCAGTATCATGGACCGGTTTTCCCGGTAATCCGTATTTGCC (site CTAGTATCTGT) | 0 |
| CCAGTCACATGGACCGGTTTTCCCGGTAATCCGTATTTGGA (site CCAGTCACTTC) | 0.00572 |
| CCAGTGTCATGGACCGGTTTTCCCGGTAATCCGTATTTGCA (site ACAGTATCTTG) | 0 |
| CCAGTGTCATGGACCGGTTTTCCCGGTAATCCGTATTTGCA (site CCAGTGTCTTG) | 1.5 |
| CCAGTTTCATGGACCGGTTTTCCCGGTAATCCGTATTTGAC (site CCAGTTTCTGT) | 0.759 |
| CCAGTTTCATGGACCGGTTTTCCCGGTAATCCGTATTTGAC (site CTAGTATCTGT) | 0 |
| CCATAAACATGGACCGGTTTTCCCGGTAATCCGTATTTGAA (site CCATAAACTTT) | 1.22 |
| CCATACTCATGGACCGGTTTTCCCGGTAATCCGTATTTGCA (site ACATACTCTTG) | 0.648 |
| CCATACTCATGGACCGGTTTTCCCGGTAATCCGTATTTGCA (site CCATACTCTTG) | 2.11 |
| CCATACTCATGGACCGGTTTTCCCGGTAATCCGTATTTGCA (site GCATACTCTTG) | 0 |
| CCATACTCATGGACCGGTTTTCCCGGTAATCCGTATTTGCA (site TCATACTCTTG) | 0 |
| CCATACTCATGGACCGGTTTTCCCGGTAATCCGTATTTGGC (site CCATACTCTGC) | 0.585 |
| CCATAGCCATGGACCGGTTTTCCCGGTAATCCGTATTTGCC (site CCATAGCCTGG) | 0 |
| CCATAGCCATGGACCGGTTTTCCCGGTAATCCGTATTTGCC (site CCCTAGCCTGG) | 0 |
| CCATAGCCATGGACCGGTTTTCCCGGTAATCCGTATTTGCC (site CCGTAGCCTGG) | 0 |
| CCATAGCCATGGACCGGTTTTCCCGGTAATCCGTATTTGCC (site CCTTAGCCTGG) | 0 |
| CCATAGTCATGGACCGGTTTTCCCGGTAATCCGTATTTGAA (site CCATAGTCTTT) | 1.86 |
| CCATATGCATGGACCGGTTTTCCCGGTAATCCGTATTTGCA (site CCATATGCTTG) | 0.198 |
| CCATCCTCATGGACCGGTTTTCCCGGTAATCCGTATTTGGT (site CCATCCTCTAC) | 1.38 |
| CCATCTACATGGACCGGTTTTCCCGGTAATCCGTATTTGTG (site ACATCTACTCA) | 0.0369 |
| CCATCTACATGGACCGGTTTTCCCGGTAATCCGTATTTGTG (site CCATCTACTCA) | 0.0215 |

Reference: the supplement of paper PMC11208160
